Measured values from patent publication US20200369626A1 (Washington University, priority 2019, published 2020).
“And” between values parts separate entries of the source, which are not always exact repeats. Equal values may be shown once. Read-outs that look alike come from different tables or passages of the source. One block for each molecule: values may come before it.

Experiments:
[1] = tested on: Experimental autoimmune encephalomyelitis (EAE); assay: EAE clinical score in immunized mice, osmotic pump treatment; assay type: in vivo, female SJL/J mice; conditions: from day 9 postimmunization
[2] = biological target: T1, S1PR2 (Homo sapiens, UniProt O95136); assay: competitive [^32P]S1P binding assay on cell membranes, S1PR2
T1 construct: purchased
T1 sequence (O95136 whole entry): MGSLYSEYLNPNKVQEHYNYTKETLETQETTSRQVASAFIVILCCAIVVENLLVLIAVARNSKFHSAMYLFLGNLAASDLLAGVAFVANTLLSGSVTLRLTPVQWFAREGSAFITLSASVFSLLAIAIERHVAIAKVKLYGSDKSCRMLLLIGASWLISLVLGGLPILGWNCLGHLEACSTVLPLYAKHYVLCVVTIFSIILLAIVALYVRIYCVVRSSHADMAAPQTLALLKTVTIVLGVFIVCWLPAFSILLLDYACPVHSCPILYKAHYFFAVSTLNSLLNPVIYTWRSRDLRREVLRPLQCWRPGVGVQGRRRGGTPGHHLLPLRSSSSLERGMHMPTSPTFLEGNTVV
Experimental: The test compounds were dissolved in DMSO and diluted into test samples with increasing concentrations with assay buffer. Commercial cell membranes expressing recombinant human S1PR were diluted with assay buffer to make a 20-40 μg/mL of solution. […] The plate was incubated for 60 min at room temperature with shaking and terminated by collecting the membranes onto 96-well glass fiber (GF/B) filtration plates (Millipore, Billerica, Mass.). Each filter was washed with 200 μL of assay buffer for a total of five washes. […] The IC50 values were fitted from GraphPad Prism 6 using one site Nonlinear Regression.

[3] = biological target: T2, S1PR3 (Homo sapiens, UniProt Q99500); assay: competitive [^32P]S1P binding assay on cell membranes, S1PR3
T2 construct: purchased
T2 sequence (Q99500 whole entry): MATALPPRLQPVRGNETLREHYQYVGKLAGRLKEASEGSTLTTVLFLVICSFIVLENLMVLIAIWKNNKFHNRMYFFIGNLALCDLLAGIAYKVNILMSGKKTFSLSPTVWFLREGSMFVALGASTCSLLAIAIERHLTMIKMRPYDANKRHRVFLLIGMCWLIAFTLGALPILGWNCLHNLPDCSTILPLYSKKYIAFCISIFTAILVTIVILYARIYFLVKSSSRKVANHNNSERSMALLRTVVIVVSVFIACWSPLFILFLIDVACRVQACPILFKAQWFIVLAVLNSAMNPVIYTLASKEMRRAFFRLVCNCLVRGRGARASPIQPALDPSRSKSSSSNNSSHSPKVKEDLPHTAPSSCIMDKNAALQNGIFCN
Experimental: (§1) The test compounds were dissolved in DMSO and diluted into test samples with increasing concentrations with assay buffer. Commercial cell membranes expressing recombinant human S1PR were diluted with assay buffer to make a 20-40 μg/mL of solution. […] The plate was incubated for 60 min at room temperature with shaking and terminated by collecting the membranes onto 96-well glass fiber (GF/B) filtration plates (Millipore, Billerica, Mass.). Each filter was washed with 200 μL of assay buffer for a total of five washes. The filter bound radionuclide was measured by a Beckman LS 3801 scintillation counter using Cherenkov counting. The IC50 values were fitted from GraphPad Prism 6 using one site Nonlinear Regression.

[4] = biological target: T3, S1PR1 (Homo sapiens, UniProt P21453); assay: competitive [^32P]S1P binding assay on cell membranes, S1PR1
T3 construct: purchased
T3 sequence (P21453 whole entry): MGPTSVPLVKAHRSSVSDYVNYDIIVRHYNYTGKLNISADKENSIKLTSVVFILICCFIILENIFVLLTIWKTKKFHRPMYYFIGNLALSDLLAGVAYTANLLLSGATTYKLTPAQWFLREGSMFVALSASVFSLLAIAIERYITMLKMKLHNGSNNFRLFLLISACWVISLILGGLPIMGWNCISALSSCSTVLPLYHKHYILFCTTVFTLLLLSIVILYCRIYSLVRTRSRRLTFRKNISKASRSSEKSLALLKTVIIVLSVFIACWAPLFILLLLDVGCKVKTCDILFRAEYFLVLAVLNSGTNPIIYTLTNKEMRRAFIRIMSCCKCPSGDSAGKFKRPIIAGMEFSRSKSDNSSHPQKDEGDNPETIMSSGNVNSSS
Experimental: as §1

[5] = biological target: T4, S1PR5 (Homo sapiens, UniProt Q9H228); assay: competitive [^32P]S1P binding assay on cell membranes, S1PR5
T4 construct: purchased
T4 sequence (Q9H228 whole entry): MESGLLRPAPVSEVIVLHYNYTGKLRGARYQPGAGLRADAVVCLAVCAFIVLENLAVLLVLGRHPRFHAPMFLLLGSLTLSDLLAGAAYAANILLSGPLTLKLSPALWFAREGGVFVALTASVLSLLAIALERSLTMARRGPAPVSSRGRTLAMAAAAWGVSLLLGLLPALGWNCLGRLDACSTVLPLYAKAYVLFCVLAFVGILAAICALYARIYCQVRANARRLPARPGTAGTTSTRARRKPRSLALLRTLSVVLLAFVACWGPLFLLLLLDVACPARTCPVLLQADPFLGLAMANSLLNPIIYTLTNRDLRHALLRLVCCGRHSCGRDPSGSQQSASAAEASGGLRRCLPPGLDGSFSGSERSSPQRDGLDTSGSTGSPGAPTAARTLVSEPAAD

[6] = biological target: T5, S1PR4 (Homo sapiens, UniProt O95977); assay: competitive [^32P]S1P binding assay on cell membranes, S1PR4
T5 construct: purchased
T5 sequence (O95977 1-384): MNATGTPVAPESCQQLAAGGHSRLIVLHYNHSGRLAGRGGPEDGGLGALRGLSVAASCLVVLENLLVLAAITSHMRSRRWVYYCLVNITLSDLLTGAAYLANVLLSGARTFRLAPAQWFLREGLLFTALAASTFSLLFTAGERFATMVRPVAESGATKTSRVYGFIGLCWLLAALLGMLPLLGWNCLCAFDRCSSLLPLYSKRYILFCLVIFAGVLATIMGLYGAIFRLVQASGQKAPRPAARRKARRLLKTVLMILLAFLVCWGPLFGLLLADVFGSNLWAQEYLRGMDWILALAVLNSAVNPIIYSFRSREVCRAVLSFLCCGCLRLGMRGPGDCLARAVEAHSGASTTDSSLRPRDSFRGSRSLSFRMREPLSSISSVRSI
Experimental: as §1

[7] = biological target: T6, Human recombinant sphingosine-1-phosphate receptor 2 (Homo sapiens, UniProt O95136); assay: competitive binding assay using [^125I]34 as radioligand; conditions: S1PR2, radioligand [^125I]34; read-out: [^125I]34 competition assay IC50
T6 sequence (O95136 whole entry): as the sequence (O95136 whole entry) above
Experimental: Then, 50 μL of different concentrations (0.01, 0.05, 0.1, 0.5, 1.0, 5.0, 10.0, 50.0, 100, 500, 1000 nM) of each ligand and 50 μL of [^125]34 (6.0 nM) was added to each well. The mixture was incubated for 1 h on a shaker at room temperature and then transferred onto a 96-well glass fiber filtration plates. The unbound activity was filtered and rapidly washed using ice-cold assay buffer (5×200 μL/well). After drying under reduced pressure, the filter bound radionuclide was measured by a Beckman 8000 automated gamma counter. The binding potency (IC50) was calculated using GraphPad Prism.

[8] = biodistribution study of [^11C]2c in EAE and control mice; assay type: in vivo, female SJL mice; conditions: for tissue uptake: female, SJL, mouse, brain, other: injection
Experimental: A biodistribution study was conducted in female SJL EAE mice and control mice (at 9 weeks, n=4 for each group) to determine the tissue accumulation of the radiotracer post-injection of the dose.

[9] = ex vivo biodistribution study of [^125I]34 in Wistar rats
Experimental: A pilot biodistribution study was carried out in a small number of rats at early time points post-injection in order to minimize the amount of mixed (radioactive and biological) waste generated by in vivo work. […] Control and streptozotocin-treated Wistar rats were used 10 days after treatment for the preliminary pilot acute ex vivo biodistribution study described below.
As described above, adult male Wistar rats from Charles River were used for a pilot study to evaluate the distribution of [^125I]34 in normal rats at 5 and 30 min post injection and in acute streptozotocin-induced diabetic rats 30 min post-injection (n=4 for each group). The acute streptozotocin-induced diabetic rats were treated 10 days before the study as described above. […] The concentrated solution of [^125I]34 was diluted to ˜0.037 MBq/100 μL which was formulated for injection in 10% ethanol in 5% polyoxyethylated 12-hydroxystearic acid (Kolliphor® HS 15, Millipore Sigma, Billerica, Mass.) and normal saline solution, in order to ensure that the radioactivity was solubilized. Rats were injected via the lateral tail vein under 2-3% isoflurane/oxygen anesthesia, then allowed to recover until euthanized under isoflurane/oxygen anesthesia at the appropriate time point post-injection. Tissues including blood, heart, lung, liver, kidney, muscle, fat, pancreas, spleen, kidney, liver, thyroid, thymus, brain, and small intestines were collected, weighed, and counted in a Beckman Gamma 8000 counter, and counts were corrected for background and decay corrected. Tracer uptake in tissues and organs was calculated as percent injected dose per gram of tissue (% ID/g).

[10] = biological target: T6, Human recombinant sphingosine-1-phosphate receptor 2; assay: biochemical; assay type: binding
Experimental: Then, a 50 μL aliquot of increasing concentrations of [^125I]34 (0.2, 0.5, 1.0, 2.0, 4.0, 6.0, 8.0, 10.0, 16.0, and 20.0 nM) was added to each well; each concentration of [^125I]34 was calculated from the radioactivity and specific activity. […] The mixture was incubated at room temperature for 1 h on a shaker and then transferred onto 96-well glass fiber filtration plates. The unbound activity was filtered and rapidly washed away using 200 μL/well of ice-cold assay buffer for 5 times. After drying under the vacuum, the filter bound radionuclide was measured by a Beckman 8000 automated gamma counter. Data analysis was accomplished using GraphPad Prism (GraphPadSoftware, Inc., San Diego, Calif.). The specific binding was calculated by subtracting the non-specific binding from the total binding. The binding assay data were curve-fit to a one-site binding equation to generate the dissociation constant (Kd) of the [^125I]34.

[11] = biological target: T7, sphingosine-1-phosphate receptor 2 in kidney sections (Rattus norvegicus, UniProt P47752); assay: in vitro autoradiography of [^125I]34 on rat kidney sections; assay type: binding, Sprague Dawley rats
T7 construct: from tissue; host or cells: kidney of male Sprague Dawley rats (control and STZ-induced diabetic)
T7 sequence (P47752 whole entry): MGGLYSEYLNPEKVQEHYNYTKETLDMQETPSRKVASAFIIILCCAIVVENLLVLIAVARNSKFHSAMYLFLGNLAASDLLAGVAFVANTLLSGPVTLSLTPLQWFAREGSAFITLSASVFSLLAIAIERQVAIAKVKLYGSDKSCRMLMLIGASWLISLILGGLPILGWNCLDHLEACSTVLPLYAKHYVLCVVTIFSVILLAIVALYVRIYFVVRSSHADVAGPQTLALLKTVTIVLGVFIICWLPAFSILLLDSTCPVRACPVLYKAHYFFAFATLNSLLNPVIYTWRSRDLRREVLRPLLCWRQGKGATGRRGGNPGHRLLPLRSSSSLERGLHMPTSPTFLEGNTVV
Experimental: To check that changes of S1PR2 expression can be detected using [^125I]34 in the STZ induced diabetes rats, in vitro autoradiography studies of [^125]34 were performed.
Male Sprague Dawley (SD) rats (8 weeks old,) received streptozotocin (STZ) via tail vein injections at a dose of 55 mg/kg in 50 mM sodium citrate buffer 12 weeks prior to euthanasia and tissue harvesting. Body weight and blood glucose levels were measured weekly in control and treated animals, where elevated blood glucose was indicative of chronic diabetes (see FIG. 5a). After 12 weeks, the rats were euthanized and one kidney was removed, snap-frozen, and sectioned (14 microns) with a Leica cryostat.
The autoradiography experiment was performed by incubating frozen cross sections of rat kidney tissue and 1.85 KBq/slide of [^125I]34 in 500 μL of binding buffer (50 mM HEPES-Na pH 7.5, 5 mM MgCl2, and 1 mM CaCl2, 0.5% fatty acid-free bovine serum albumin) to check the uptake of the radioactivity. Blocking studies of radiotracer were performed by incubating the above solution with 10 μM of JTE-013, a S1PR2 specific inhibitor. After incubation for 60 minutes at room temperature, the kidney sections were washed 2 minutes each using the following buffers sequentially: 1×TBST, 15% ethanol in 1×TBST, 30% ethanol in 1×TBST, 1×TBST (1×TBST buffer: 20 mM of Tris, 150 mM of NaCl, 0.1% of Tween 20). Then, the section slides were placed into a cassette and exposed to a phosphor sensor sheet for 24 hours. Autoradiography signal was visualized by phosphor-imaging of FLA7000. Autoradiography signal on the renal tissues (cortex and medulla, not including the renal papilla) was measured and quantified with Multi Gouge program. The data was background-corrected and expressed as photo-stimulated luminescence signals per square millimeter (PSL/mm^2) as shown in FIG. 5B. For statistical comparison, the student t-test (unpaired) was applied using MS Excel and p<0.05 was considered statistically significant (see FIG. 5C.)

IC50 ([2]; [^32P]S1P competition, read-out: IC50 value, S1PR2 binding): 5.7 ± 0.5 nM
SMILES: COc1ccc(NC(=O)Cn2c(=O)c3ccccc3n(CC(=O)Nc3cc(Cl)c(OC)cc3OC)c2=O)cc1 [Compound 2c]
EAE disease course (clinical score) ([1]; 1 mg/kg, p<0.0002): significant improvement of EAE disease course
EAE disease course (clinical score) ([1]; 5 mg/kg, p<0.0001): significant improvement of EAE disease course

melting point: 79 to 81 °C
IC50 [3]: > 1000 nM
IC50 [4]: > 1000 nM
IC50 ([2]; [^32P]S1P competition, Table 2, read-out: IC50 S1PR2): 38.5 ± 6.3 nM
IC50 [5]: > 1000 nM
IC50 [6]: > 1000 nM
SMILES: CC(C)CC1(O)CCN(C(=O)Nc2cc(Oc3ccc(F)cc3)cc(Sc3ccc(S(C)(=O)=O)cc3)c2)CC1 [Compound 28g, N-(3-(4-Fluorophenoxy)-5-((4-(methylsulfonyl)phenyl)-thio)phenyl)-4-hydroxy-4-isobutylpiperidine-1-carboxamide]

IC50 [7]: 4.4 ± 0.2 nM
IC50 ([2]; read-out: [^32P]S1P competition assay IC50, S1PR2, radioligand [^32P]S1P): 2.8 nM
SMILES: COc1ccc(NC(=O)Cn2c(=O)c3ccccc3n(CC(=O)Nc3cc(I)c(OC)cc3OC)c2=O)cc1 [Compound 34, N-(5-iodo-2,4-dimethoxyphenyl)-2-(3-(2-((4-methoxyphenyl)amino)-2-oxoethyl)-2,4-dioxo-3,4-dihydroquinazolin-1(2H)-yl)acetamide]

uptake in brain, blood, heart, lung, and pancreas ([8]; EAE mice versus control): increased uptake
tissue uptake ([8]; EAE mice): 0.699 %ID/g
tissue uptake ([8]; control mice): 0.452 %ID/g
SMILES: COc1ccc(NC(=O)Cn2c(=O)c3ccccc3n(CC(=O)Nc3cc(Cl)c(OC)cc3OC)c2=O)cc1 [[^11C]2c]

SMILES: COc1ccc(NC(=O)Cn2c(=O)c3ccccc3n(CC(=O)Nc3cc([125I])c(OC)cc3OC)c2=O)cc1 [[^125I]34]
Uptake Blood ([9]; 5 min control): 0.19 % ID/g and 0.19 ± 0.05 % ID/g
Uptake Blood ([9]; 30 min acute diabetic): 0.08 ± 0.05 % ID/g
Uptake Blood ([9]; 30 min control): 0.08 ± 0.02 % ID/g
Uptake Brain ([9]; 5 min control): 0.01 % ID/g and 0.01 ± 0.00 % ID/g
Uptake Brain ([9]; 30 min acute diabetic): 0.01 ± 0.00 % ID/g
Uptake Brain ([9]; 30 min control): 0.01 ± 0.00 % ID/g
Uptake Fat ([9]; 5 min control): 0.07 ± 0.02 % ID/g
Uptake Fat ([9]; 30 min acute diabetic): 0.11 ± 0.04 % ID/g
Uptake Fat ([9]; 30 min control): 0.09 ± 0.01 % ID/g
Uptake Heart ([9]; 5 min control): 0.39 % ID/g and 0.39 ± .08 % ID/g
Uptake Heart ([9]; 30 min acute diabetic): 0.12 ± 0.06 % ID/g
Uptake Heart ([9]; 30 min control): 0.14 ± 0.02 % ID/g
Uptake Kidney ([9]; 5 min control): 0.58 % ID/g and 0.58 ± 0.02 % ID/g
Uptake Kidney ([9]; 30 min acute diabetic): 0.15 ± 0.06 % ID/g
Uptake Kidney ([9]; 30 min control): 0.15 ± 0.02 % ID/g
Uptake Liver ([9]; 5 min control): 2.20 % ID/g and 2.20 ± 0.32 % ID/g
Uptake Liver ([9]; 30 min acute diabetic): 0.36 ± 0.14 % ID/g
Uptake Liver ([9]; 30 min control): 0.36 ± 0.07 % ID/g
Uptake Lung ([9]; 5 min control): 0.64 % ID/g and 0.64 ± 0.01 % ID/g
Uptake Lung ([9]; 30 min acute diabetic): 0.20 ± 0.09 % ID/g
Uptake Lung ([9]; 30 min control): 0.22 ± 0.04 % ID/g
Uptake Muscle ([9]; 5 min control): 0.12 ± 0.01 % ID/g
Uptake Muscle ([9]; 30 min acute diabetic): 0.06 ± 0.02 % ID/g
Uptake Muscle ([9]; 30 min control): 0.08 ± 0.01 % ID/g
Uptake Pancreas ([9]; 5 min control): 0.40 ± 0.04 % ID/g
Uptake Pancreas ([9]; 30 min acute diabetic): 0.12 ± 0.04 % ID/g
Uptake Pancreas ([9]; 30 min control): 0.14 ± 0.01 % ID/g
Uptake Small intestines ([9]; 5 min control): 1.09 ± 0.23 % ID/g
Uptake Small intestines ([9]; 30 min acute diabetic): 2.59 ± 0.58 % ID/g
Uptake Small intestines ([9]; 30 min control): 5.32 ± 0.27 % ID/g
Uptake Spleen ([9]; 5 min control): 0.29 ± 0.06 % ID/g
Uptake Spleen ([9]; 30 min acute diabetic): 0.05 ± 0.02 % ID/g
Uptake Spleen ([9]; 30 min control): 0.06 ± 0.01 % ID/g
Uptake Thymus ([9]; 5 min control): 0.10 ± 0.01 % ID/g
Uptake Thymus ([9]; 30 min acute diabetic): 0.08 ± 0.03 % ID/g
Uptake Thymus ([9]; 30 min control): 0.10 ± 0.02 % ID/g
Uptake Thyroid ([9]; 5 min control): 0.32 ± 0.11 % ID/g
Uptake Thyroid ([9]; 30 min acute diabetic): 0.25 ± 0.06 % ID/g
Uptake Thyroid ([9]; 30 min control): 0.53 ± 0.09 % ID/g
in vivo metabolic stability ([9]; inferred from low activity in the thyroid): metabolically stable
crossing of the blood brain barrier ([9]; inferred from very low brain uptake in rats): does not cross the blood brain barrier
Kd [10]: 4.31 ± 0.39 nM
blocking of binding to kidney tissue ([11]; 10 μM of JTE-013, both groups): could be blocked
kidney radioactivity (autoradiography signal) ([11]; chronic diabetic (STZ) rats, n=5): 103.5 PSL/mm^2
increase of binding to kidney of diabetic rats compared to control rats ([11]; chronic diabetic vs control): 44%
kidney radioactivity (autoradiography signal) ([11]; control rats, n=4): 72.0 PSL/mm^2
